Data on 9 molecules can be found in patent US20180000085A1, “USE OF PICOLINAMIDE COMPOUNDS WITH FUNGICIDAL ACTIVITY” (DOW AGROSCIENCES LLC, priority 2014, published 2018).

The test system of assay [1] is Puccinia triticina. In words: Wheat brown rust (PUCCRT) disease control on wheat seedlings. It is filed as in vivo. Further details: key to PUCCRT 3DC, HV activity at 100 ppm (% control rating) / PUCCRT disease control, 3DC / PUCCRT 1DP disease control rating, HV activity / PUCCRT 3DC disease control rating, HV activity / PUCCRT 3DC, LV activity at 125.1 g/H (% Control rating) / PUCCRT 1DP, LV activity at 125.1 g/H (% Control rating) / PUCCRT 3DC disease control rating, LV activity at 125.1 g/H / PUCCRT 1DP disease control rating, LV activity at 125.1 g/H / PUCCRT 3DC disease control rating, HV activity at 100 ppm / PUCCRT 1DP disease control rating, HV activity at 100 ppm / HV activity at 100 ppm PUCCRT 3DC (disease control rating) / LV activity at 125.1 g/H PUCCRT 1DP (disease control rating) / LV activity at 125.1 g/H PUCCRT 3DC (disease control rating): A: > 80; B: ≤ 80; C: Not Tested; D: No Activity Observed in the Reported Assay. To be noted: for PUCCRT 1DP disease control rating, HV activity at 100 ppm / PUCCRT 3DC disease control rating, HV activity at 100 ppm: high volume application; for PUCCRT 1DP disease control rating, HV activity at 100 ppm: 1 day protectant; for PUCCRT 3DC disease control rating, HV activity at 100 ppm: 3 day curative; for PUCCRT 1DP, LV activity at 125.1 g/H (% Control rating) / PUCCRT 3DC, LV activity at 125.1 g/H (% Control rating): low volume application; for PUCCRT 1DP, LV activity at 125.1 g/H (% Control rating) / PUCCRT 1DP disease control rating, HV activity: 1 Day Protectant; for PUCCRT 3DC, LV activity at 125.1 g/H (% Control rating) / PUCCRT 3DC disease control rating, HV activity: 3 Day Curative; for PUCCRT 1DP disease control rating, HV activity / PUCCRT 3DC disease control rating, HV activity: HV application at 100 ppm, wheat brown rust.

Assay [2] deals with Zymoseptoria tritici. In words: Leaf blotch of wheat (SEPTTR) disease control on wheat seedlings. It is filed as in vivo. Further details: key to SEPTTR 1DP, HV activity at 100 ppm (% control rating) / SEPTTR 3DC, HV activity at 100 ppm (% control rating) / SEPTTR disease control, 1DP / SEPTTR disease control, 3DC / SEPTTR 1DP disease control rating, HV activity / SEPTTR 3DC disease control rating, HV activity / SEPTTR 3DC, LV activity at 125.1 g/H (% Control rating) / SEPTTR 1DP, LV activity at 125.1 g/H (% Control rating) / SEPTTR 1DP disease control rating, LV activity at 125.1 g/H / SEPTTR 3DC disease control rating, LV activity at 125.1 g/H / SEPTTR 3DC disease control rating, HV activity at 100 ppm / SEPTTR 1DP disease control rating, HV activity at 100 ppm / HV activity at 100 ppm SEPTTR 3DC (disease control rating) / HV activity at 100 ppm SEPTTR 1DP (disease control rating) / LV activity at 125.1 g/H SEPTTR 1DP (disease control rating) / LV activity at 125.1 g/H SEPTTR 3DC (disease control rating): A: > 80; B: ≤ 80; C: Not Tested; D: No Activity Observed in the Reported Assay. The following applies: for SEPTTR 1DP disease control rating, HV activity at 100 ppm / SEPTTR 3DC disease control rating, HV activity at 100 ppm: high volume application; for SEPTTR 1DP disease control rating, HV activity at 100 ppm: 1 day protectant; for SEPTTR 3DC disease control rating, HV activity at 100 ppm: 3 day curative; for SEPTTR 1DP, LV activity at 125.1 g/H (% Control rating) / SEPTTR 3DC, LV activity at 125.1 g/H (% Control rating): low volume application; for SEPTTR 1DP, LV activity at 125.1 g/H (% Control rating) / SEPTTR 1DP disease control rating, HV activity: 1 Day Protectant; for SEPTTR 3DC, LV activity at 125.1 g/H (% Control rating) / SEPTTR 3DC disease control rating, HV activity: 3 Day Curative; for SEPTTR 1DP disease control rating, HV activity / SEPTTR 3DC disease control rating, HV activity: HV application at 100 ppm, wheat leaf blotch.

`COc1ccnc(C(=O)N[C@@H](C)C(=O)O[C@@H](C)[C@H](Oc2cccc(Cl)c2)C(C)(C)C)c1O` [Cmpd 1007]: in assay [1], the “PUCCRT 1DP disease control rating, HV activity at 100 ppm” value was “A (> 80)” and the “PUCCRT 3DC disease control rating, HV activity at 100 ppm” value is given as “A (> 80)”. In assay [2], the “SEPTTR 1DP disease control rating, HV activity at 100 ppm” value was “A (> 80)” and the “SEPTTR 3DC disease control rating, HV activity at 100 ppm” value was “B (≤ 80)”.

In the case of `CCC(CC)[C@@H](Oc1ccc(Cl)cc1Cl)[C@H](C)OC(=O)[C@H](C)NC(=O)c1nccc(OC)c1OC(C)=O` [Cmpd 601], in assay [1], the “PUCCRT 1DP, LV activity at 125.1 g/H (% Control rating)” value (from here on “PUCCRT 1DP … (% Control rating)”) was “A (> 80)” and the “PUCCRT 3DC, LV activity at 125.1 g/H (% Control rating)” value (“PUCCRT 3DC … (% Control rating)” below) is “B (≤ 80)”. In assay [2], the “SEPTTR 1DP, LV activity at 125.1 g/H (% Control rating)” value (shortened to “SEPTTR 1DP … (% Control rating)”) is given as “B (≤ 80)” and the “SEPTTR 3DC, LV activity at 125.1 g/H (% Control rating)” value (“SEPTTR 3DC … (% Control rating)” for short) was “B (≤ 80)”.

As to `COc1ccnc(C(=O)NC(C)C(=O)OC(C)C(Oc2cccc(C(F)(F)F)c2)C(C)C)c1O` (stereo not drawn) [Cmpd 433], in assay [1], the “PUCCRT 1DP disease control rating, HV activity” value is “A (> 80)” and the “PUCCRT 3DC disease control rating, HV activity” value is on record as “A (> 80)”. Also, in assay [2], the “SEPTTR 1DP disease control rating, HV activity” value is listed as “D” and the “SEPTTR 3DC disease control rating, HV activity” value is “D”.

With `COc1ccnc(C(=O)NC(C)C(=O)OC(C)C(Oc2ccc(Cl)cc2Cl)c2ccccc2)c1O` (stereo not drawn) [Cmpd 817], in assay [1], the “PUCCRT 1DP disease control rating, HV activity at 100 ppm” value is on record as “A (> 80)” and the “PUCCRT 3DC disease control rating, HV activity at 100 ppm” value is “A (> 80)”. In assay [2], the “SEPTTR 1DP disease control rating, HV activity at 100 ppm” value was “A (> 80)” and the “SEPTTR 3DC disease control rating, HV activity at 100 ppm” value is reported as “B (≤ 80)”.

On to `C=CC[C@@H](Oc1cc(F)cc(Cl)c1)[C@H](C)OC(=O)[C@H](C)NC(=O)c1nccc(OC)c1O` [Cmpd 1022], for which, in assay [1], the “PUCCRT 1DP disease control rating, HV activity at 100 ppm” value is listed as “B (≤ 80)” and the “PUCCRT 3DC disease control rating, HV activity at 100 ppm” value was “A (> 80)”. Also, in assay [2], the “SEPTTR 1DP disease control rating, HV activity at 100 ppm” value is recorded as “D” and the “SEPTTR 3DC disease control rating, HV activity at 100 ppm” value was “B (≤ 80)”.

As for `CCC(CC)[C@@H](Oc1cc(F)ccc1F)[C@H](C)OC(=O)[C@H](C)NC(=O)c1nccc(OC)c1OC(C)=O` [Cmpd 602], in assay [1], the “PUCCRT 1DP … (% Control rating)” value is “A (> 80)” and the “PUCCRT 3DC … (% Control rating)” value is on record as “A (> 80)”. Also, in assay [2], the “SEPTTR 1DP … (% Control rating)” value is given as “A (> 80)” and the “SEPTTR 3DC … (% Control rating)” value is “A (> 80)”.

As to `COc1ccnc(C(=O)NC(C)C(=O)OC(C)(C)C(Oc2ccccc2)C(C)C)c1O` (stereo not drawn) [Cmpd 831], in assay [1], the “PUCCRT 1DP disease control rating, HV activity at 100 ppm” value is “B (≤ 80)” and the “PUCCRT 3DC disease control rating, HV activity at 100 ppm” value was “D”. Besides, in assay [2], the “SEPTTR 1DP disease control rating, HV activity at 100 ppm” value is given as “D” and the “SEPTTR 3DC disease control rating, HV activity at 100 ppm” value is listed as “D”.

With `CCCOC(CC)C(Oc1ccccc1)C(C)OC(=O)C(NC(=O)c1nccc(OC)c1OCOC(C)=O)C(C)CC` (stereo not drawn) [Cmpd 449], in assay [1], the “PUCCRT 1DP disease control rating, HV activity” value is reported as “A (> 80)” and the “PUCCRT 3DC disease control rating, HV activity” value is “A (> 80)”. For the same molecule, in assay [2], the “SEPTTR 1DP disease control rating, HV activity” value is listed as “A (> 80)” and the “SEPTTR 3DC disease control rating, HV activity” value is “B (≤ 80)”.

In the case of `COc1ccnc(C(=O)N[C@H](C(=O)O[C@@H](C)[C@H](Oc2ccc(C(F)(F)F)cc2)c2ccccc2)C(C)C)c1OCOC(C)=O` [Cmpd 584], in assay [1], the “PUCCRT 1DP … (% Control rating)” value is reported as “A (> 80)” and the “PUCCRT 3DC … (% Control rating)” value was “B (≤ 80)”. Also, in assay [2], the “SEPTTR 1DP … (% Control rating)” value is “A (> 80)” and the “SEPTTR 3DC … (% Control rating)” value is “D”.
